Key:
[1] = target: T1, NLRP3 inflammasome (association of caspase-1 with NLRP3) (Homo sapiens, UniProt Q96P20); experiment: FRET analysis of NLRP3 inflammasome assembly in human monocyte-derived macrophages after LPS/ATP; assay type: cell-based; conditions: 50 μM, HMDM from 4 donors, P<0.01
T1 construct: endogenous in cells; host or cells: human monocyte-derived macrophages (HMDM) from 4 healthy donors
Procedure: Human monocyte-derived macrophages (HMDM) were cultured on glass slides for 5 days with GM-CSF, stimulated for 4 hours with […] LPS and then treated with 5 mM ATP for one hour. Dapansutrile (OLT1177™, 50 μM) was added to the cells either 30 minutes following LPS stimulation or at the same time as ATP.
After washing with PBS, the cells were fixed and permeabilized with 70-30 acetone-methanol as described by Gamboni et al, Physiol Rep., 2 (7), 2014. Briefly, cells were placed in a humidified slide chamber blocked for 1 hour in 10% normal donkey serum (Jackson Immunologicals, Westgrove, PA). After removal of the donkey serum, the primary antibodies to human NLRP3 (Cryo-2, AdipoGen San Diego, CA), human caspase-1 (sc-515, Santa Cruz Biotechnology) or isomolar, species-specific anti-IgG (R&D Systems) were added and kept overnight at 4° C. […] FRET images were acquired using a Marianas Imaging Station using a Zeiss 639 Plan-Apochromat objective (1.4 N/A), a Sutter Xenon light source and a Cooke SensiCam as described by Gamboni et al. The corrected FRET was calculated as FRET=Transfer-Fd/D donor-Fa/Aa acceptor as reported by Berney et al, Biophys J., 84:3992-4010, 2003. […]

[2] = system: IL-18 release from human monocytes-derived macrophages; experiment: Suppression of IL-18 release from human monocytes-derived macrophages (LPS priming, nigericin release, ELISA); assay type: cell-based
Procedure: Peripheral blood mononuclear cells (PBMCs) were isolated from blood of 6 healthy human donors and differenciates in macrophages using GM-CSF (5 ng/ml) for 5 days. They were stimulated with 1 μg/mL with lipopolysaccharide (LPS, priming phase) at time zero. At 30 minutes, they were incubated with different concentrations of dapansutrile (OLT1177™) from 0.001-100 μM. At 4 hours, 10 μM of nigericin (NIG, release phase) was added. At the end of an 5 hour incubation period, the supernatant was harvested and assayed for IL-1β or IL-18 using respective ELISA kits following manafacturer's protocols.

[3] = system: caspase-1; experiment: Caspase-1 activity in J774A.1 cell lysates after LPS and nigericin stimulation; assay type: cell-based, murine; conditions: 50 μM, J774A.1 cells, n=3, p<0.05
Procedure: J774A.1 murine macrophages cells were stimulated with 1 μg/ml lipopolysaccharide (LPS) for 4 hours and either nigericin (NIG, 10 μM) or ATP (5 mM) was added for 1 hour. OLT1177™ was added to the cells either 30 minutes following LPS stimulation or at the same time as ATP.
1 cell lysates following LPS and NIG stimulation in presence of 50 μM dapansutrile (OLT1177™). Caspase-1 activity is expressed as percent change of the mean value of each assay (n=3) with LPS/NIG set at 100%. Caspase-1 activity was reduced by 35% (p<0.05) in an enzymatic assay of cell lysate from stimulated cells in the presence of dapansutrile, comparing with control.

[4] = system: dogs, occlusive coronary thrombus formation; experiment: Thrombus formation in anesthetized dogs (anodal current to left circumflex coronary artery); assay type: in vivo; conditions: intravenous, about 30 min before anodal current; written in present tense
Procedure: To evaluate the effect of compound of Formula I or II on dynamic thrombus formation in vivo, the following experimental protocol, similar to the method of J. L. Romson et al. (Thromb. Res. 17:841-853, 1980), is performed.
Surgical Preparation and Instrumentation. Briefly, purpose-bred dogs are anesthetized, intubated and ventilated with room air. The heart is exposed by a left thoracotomy in the fifth intercostal space and suspended in a pericardial cradle. A 2-3 cm segment of the left circumflex coronary artery (LCCA) is isolated by blunt dissection. The artery is instrumented from proximal to distal with a flow probe, a stimulation electrode, and a Goldblatt clamp. The flow probe monitors the mean and phasic LCCA blood flow velocities. […]
Experimental Protocol: Dogs are randomized to one of four treatment protocols in which the control group receives saline intravenously and the three drug-treated groups are administered Rho kinase inhibitor compound intravenously. […] The number and frequency of cyclic flow variations (CFV) that precede formation of an occlusive thrombus are recorded. […]

[5] = system: adult CD1 male mice, acute myocardial infarction; experiment: Acute myocardial infarction (30 min ischemia, 24 h reperfusion), infarct sparing effect, Example 8; assay type: in vivo; conditions: 60 mg/kg IP immediately after reperfusion, vs vehicle
Procedure: An acute myocardial infarction in adult CD1 male mice was induced by performing a transient surgical ligation of the left coronary artery for 30 minutes followed by reperfusion for 24 hours: 3 mice received OLT1177™ (60 mg/kg) given intraperitoneally immediately after reperfusion and 8 mice received an equal volume of vehicle (NaCl 0.9%). After 24 hours, left ventricular fractional shortening, a surrogate for cardiac systolic function, was measured, using transthoracic echocardiography. After the echocardiogram, the mice were prepared for infarct size measurement using the Triphenyl-Tetrazolium-Chloride (TTC) and Evans Blue technique and then sacrificed: the area of the heart considered not ischemia (non-risk area) appeared blue, the area of the heart that was at risk but viable appeared red, the infarct myocardium appeared pale-white. The left panel of FIG. 6 depicts the TTC/Evans Blue staining of one mouse treated with vehicle and one with OLT1177™: it is apparent that the area of infarct is much larger in the vehicle.

T1 sequence (Q96P20 whole entry): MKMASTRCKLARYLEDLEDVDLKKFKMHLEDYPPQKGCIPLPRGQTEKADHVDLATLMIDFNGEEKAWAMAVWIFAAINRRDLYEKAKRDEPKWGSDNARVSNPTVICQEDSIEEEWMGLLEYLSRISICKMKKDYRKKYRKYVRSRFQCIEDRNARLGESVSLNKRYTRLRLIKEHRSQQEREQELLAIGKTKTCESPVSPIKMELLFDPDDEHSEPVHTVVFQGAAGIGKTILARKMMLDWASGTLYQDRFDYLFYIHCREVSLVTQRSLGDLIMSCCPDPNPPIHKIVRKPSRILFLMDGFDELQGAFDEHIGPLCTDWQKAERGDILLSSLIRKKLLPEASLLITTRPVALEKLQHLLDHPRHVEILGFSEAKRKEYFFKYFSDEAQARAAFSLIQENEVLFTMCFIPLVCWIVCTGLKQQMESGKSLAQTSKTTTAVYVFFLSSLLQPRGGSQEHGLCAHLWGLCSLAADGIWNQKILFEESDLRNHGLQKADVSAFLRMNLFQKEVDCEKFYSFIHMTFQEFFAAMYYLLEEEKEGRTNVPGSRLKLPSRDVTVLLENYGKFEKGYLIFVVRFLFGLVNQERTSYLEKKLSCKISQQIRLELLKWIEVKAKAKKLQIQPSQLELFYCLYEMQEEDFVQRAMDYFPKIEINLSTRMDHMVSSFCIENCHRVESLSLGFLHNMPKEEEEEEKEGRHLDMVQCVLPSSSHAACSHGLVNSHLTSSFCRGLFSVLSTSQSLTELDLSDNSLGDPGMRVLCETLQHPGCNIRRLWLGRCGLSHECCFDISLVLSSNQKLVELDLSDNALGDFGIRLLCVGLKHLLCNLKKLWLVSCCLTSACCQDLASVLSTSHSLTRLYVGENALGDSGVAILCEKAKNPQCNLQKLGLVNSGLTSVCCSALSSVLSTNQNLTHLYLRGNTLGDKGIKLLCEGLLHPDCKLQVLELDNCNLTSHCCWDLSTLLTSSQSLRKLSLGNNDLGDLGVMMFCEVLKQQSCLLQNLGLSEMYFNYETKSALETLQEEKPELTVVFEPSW

For `CS(=O)(=O)CCC#N` [OLT1177™, 3-methanesulfonyl-propionitrile], the “association of caspase-1 with NLRP3 (FRET intensity)” value [1] was “reduced”, the “concentration of maximum suppression effects on IL-18 release” value ([2]; HMDM, 1 μg/mL LPS then 10 μM nigericin, 0.001-100 μM tested) was 10 to 50 µM and the “release of IL-18 from stimulated monocytes-derived macrophages” value ([2]; LPS/nigericin, compared to control) was “suppresses”. The “reduction of caspase-1 activity in cell lysate (LPS/NIG set at 100%)” value [3] was 35%, the “number and frequency of cyclic flow variations that precede formation of an occlusive thrombus” value [4] was “significantly increases” and the “infarct size as percentage of the area-at-risk” value [5] was “significantly smaller”. For the same compound, the “left ventricular systolic function (fractional shortening)” value [5] was “preservation”.
